The test deals with T1, human TLR7 (Homo sapiens, UniProt Q9NYK1).
T1 sequence (Q9NYK1 27-1049): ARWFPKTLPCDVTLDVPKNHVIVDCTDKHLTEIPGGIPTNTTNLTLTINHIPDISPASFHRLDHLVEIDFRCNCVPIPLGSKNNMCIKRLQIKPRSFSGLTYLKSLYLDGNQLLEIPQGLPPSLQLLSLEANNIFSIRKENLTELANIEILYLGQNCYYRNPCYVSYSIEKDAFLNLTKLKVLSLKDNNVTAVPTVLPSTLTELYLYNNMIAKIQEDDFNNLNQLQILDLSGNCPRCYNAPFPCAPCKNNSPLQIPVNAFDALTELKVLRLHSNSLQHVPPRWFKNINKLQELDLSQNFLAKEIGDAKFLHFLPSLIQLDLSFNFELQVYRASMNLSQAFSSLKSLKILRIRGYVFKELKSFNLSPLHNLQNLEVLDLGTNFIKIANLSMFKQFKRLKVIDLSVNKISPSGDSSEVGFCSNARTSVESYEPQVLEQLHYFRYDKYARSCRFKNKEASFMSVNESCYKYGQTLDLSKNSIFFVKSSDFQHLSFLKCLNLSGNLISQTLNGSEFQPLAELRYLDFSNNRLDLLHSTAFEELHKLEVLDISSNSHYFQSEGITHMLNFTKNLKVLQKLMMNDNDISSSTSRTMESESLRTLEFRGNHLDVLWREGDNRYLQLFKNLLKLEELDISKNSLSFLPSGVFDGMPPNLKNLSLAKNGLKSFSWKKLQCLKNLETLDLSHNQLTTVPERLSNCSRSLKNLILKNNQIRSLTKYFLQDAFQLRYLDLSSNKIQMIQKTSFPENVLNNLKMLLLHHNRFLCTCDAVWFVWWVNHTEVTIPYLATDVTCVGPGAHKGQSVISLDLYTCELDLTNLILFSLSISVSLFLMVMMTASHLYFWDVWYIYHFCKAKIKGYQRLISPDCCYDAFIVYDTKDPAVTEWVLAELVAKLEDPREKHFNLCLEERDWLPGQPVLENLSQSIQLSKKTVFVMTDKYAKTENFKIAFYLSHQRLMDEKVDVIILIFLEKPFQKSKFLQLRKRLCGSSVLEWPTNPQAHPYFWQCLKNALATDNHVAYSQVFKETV
Briefly: HEK293-Blue-hTLR-7 cells assay (SEAP reporter, R848 stimulation). The conditions noted are these: HEK293-Blue-hTLR7 cells, R848 ligand, 20 hrs incubation. In kind it is cell-based. The source says:
A stable HEK293-Blue-hTLR-7 cell line was purchased from InvivoGen (Cat. #: hkb-htlr7, San Diego, Calif., USA). These cells were originally designed for studying the stimulation of human TLR7 by monitoring the activation of NF-κB. A SEAP (secreted embryonic alkaline phosphatase) reporter gene was placed under the control of the IFN-β minimal promoter fused to five NF-κB and AP-1-binding sites. The SEAP was induced by activating NF-κB and AP-1 via stimulating HEK-Blue hTLR7 cells with TLR7 ligands. Therefore the reporter expression was declined by TLR7 antagonist under the stimulation of a ligand, such as R848 (Resiquimod), for incubation of 20 hrs. The cell culture supernatant SEAP reporter activity was determined using QUANTI-Blue™ kit (Cat. #: rep-qb1, Invivogen, San Diego, Ca, USA) at a wavelength of 640 nm, a detection medium that turns purple or blue in the presence of alkaline phosphatase.
HEK293-Blue-hTLR7 cells were incubated at a density of 250,000˜450,000 cells/mL in a volume of 170 μL in a 96-well plate in Dulbecco's Modified Eagle's medium (DMEM) containing 4.5 g/L glucose, 50 U/mL penicillin, […], […], 2 mM L-glutamine, 10% (v/v) heat-inactivated fetal bovine serum with addition of 20 μL test compound in a serial dilution in the presence of final DMSO at 1% and 10 μL of 20 uM R848 in above DMEM, perform incubation under 37° C. in a CO2 incubator for 20 hrs. Then 20 μL of the supernatant from each well was incubated with 180 μL Quanti-blue substrate solution at 37° C. for 2 hrs and the absorbance was read at 620˜655 nm using a spectrophotometer. The signalling pathway that TLR7 activation leads to downstream NF-κB activation has been widely accepted, and therefore similar reporter assay was modified for evaluating TLR7 antagonist.
Consider `C[C@@H]1CN(c2ccc(C#N)n3nccc23)C[C@H](CN2C[C@H]3CC[C@@H](N(C)C)[C@H]3C2)O1` (racemic) [Example 75, 4-[(2S,6R)-2-[[4-(dimethylamino)-3,3a,4,5,6,6a-hexahydro-1H-cyclopenta[c]pyrrol-2-yl]methyl]-6-methyl-morpholin-4-yl]pyrazolo[1,5-a]pyridine-7-carbonitrile], for which inhibition was half-maximal at 680 nM (IC50). Under `C[C@@H]1CN(c2ccc(C#N)n3nccc23)C[C@H](CN2CCC3(CCNC3)C2)O1` (stereo partly drawn) [Example 6, 4-[(2S,6R)-2-(2,7-diazaspiro[4.4]nonan-2-ylmethyl)-6-methyl-morpholin-4-yl]pyrazolo[1,5-a]pyridine-7-carbonitrile] stands 200 nM; under `C[C@@H]1CN(c2ccc(C#N)n3nccc23)C[C@H](CN2CCC(N)C(F)(F)C2)O1` (stereo partly drawn) [Example 34, 4-[(2S,6R)-2-[(4-amino-3,3-difluoro-1-piperidyl)methyl]-6-methyl-morpholin-4-yl]pyrazolo[1,5-a]pyridine-7-carbonitrile], 87 nM; under `C[C@@H]1CN(c2ccc(C#N)n3nccc23)C[C@H](CN2CC3CCCNC3C2)O1` (stereo partly drawn) [Example 45, 4-[(2S,6R)-2-(1,2,3,4,4a,5,7,7a-octahydropyrrolo[3,4-b]pyridin-6-ylmethyl)-6-methyl-morpholin-4-yl]pyrazolo[1,5-a]pyridine-7-carbonitrile], 250 nM.

For the compound `C[C@@H]1CN(c2ccc(C#N)n3nccc23)C[C@H](CN2CC3CCC(C2)C3N)O1` (stereo partly drawn) [Example 36, 4-[(2S,6R)-2-[(8-amino-3-azabicyclo[3.2.1]octan-3-yl)methyl]-6-methyl-morpholin-4-yl]pyrazolo[1,5-a]pyridine-7-carbonitrile], half-maximal inhibition (IC50) required 38 nM. Under `C[C@@H]1CN(c2ccc(C#N)n3nccc23)C[C@H](CN2CCC(N3CCN(C)CC3)CC2)O1` [Example 1, 4-[(2R,6S)-2-methyl-6-[[4-(4-methylpiperazin-1-yl)-1-piperidyl]methyl]morpholin-4-yl]pyrazolo[1,5-a]pyridine-7-carbonitrile] stands 95 nM; under `C[C@@H]1CN(c2ccc(C#N)n3nccc23)C[C@H](CN2CCC[C@@H]3NCCC32)O1` (stereo partly drawn) [Example 63, 4-[(2R,6S)-2-methyl-6-[[cis-(3aS,7aS)-1,2,3,3a,5,6,7,7a-octahydropyrrolo[3,2-b]pyridin-4-yl]methyl]morpholin-4-yl]pyrazolo[1,5-a]pyridine-7-carbonitrile], 270 nM.

As for `C[C@@H]1CN(c2ccc(C#N)n3nccc23)C[C@H](CN2C3CCCC2CC(N)C3)O1` (stereo partly drawn) [Example 66, Exo-4-[(2S,6R)-2-[(3-amino-9-azabicyclo[3.3.1]nonan-9-yl)methyl]-6-methyl-morpholin-4-yl]pyrazolo[1,5-a]pyridine-7-carbonitrile], the IC50 (in general, the concentration needed to halve the response being measured) was 490 nM. For `C[C@@H]1CN(c2ccc(C#N)n3nccc23)C[C@H](CN2CCC3(CC2)CNCCO3)O1` [Example 60, 4-[(2R,6S)-2-methyl-6-(1-oxa-4,9-diazaspiro[5.5]undecan-9-ylmethyl)morpholin-4-yl]pyrazolo[1,5-a]pyridine-7-carbonitrile], the half-inhibitory concentration (IC50) was found to be 100 nM. The figure for `C[C@@H]1CN(c2ccc(C#N)n3nccc23)C[C@H](CN2CC3(CCCNCC3)C2)O1` [Example 46, 4-[(2S,6R)-2-(2,8-diazaspiro[3.6]decan-2-ylmethyl)-6-methyl-morpholin-4-yl]pyrazolo[1,5-a]pyridine-7-carbonitrile] is 600 nM.

Take `CC1CN(C[C@H]2CN(c3ccc(C#N)n4nccc34)C[C@@H](C)O2)CCN1` (stereo partly drawn) [Example 28, 4-[(2R,6S)-2-methyl-6-[(3-methylpiperazin-1-yl)methyl]morpholin-4-yl]pyrazolo[1,5-a]pyridine-7-carbonitrile]: the IC50 turned out to be 44 nM.

Take `C[C@@H]1CN(c2ccc(C#N)n3nccc23)C[C@H](CN2C3CCC2CC(N)C3)O1` (stereo partly drawn) [Example 37, 4-[(2S,6R)-2-[(3-amino-8-azabicyclo[3.2.1]octan-8-yl)methyl]-6-methyl-morpholin-4-yl]pyrazolo[1,5-a]pyridine-7-carbonitrile]: the IC50 came to 190 nM. The figure for `C[C@@H]1CN(c2ccc(C#N)n3nccc23)C[C@H](CN2CC3(CCNCC3)C2)O1` [Example 24, 4-[(2S,6R)-2-(2,7-diazaspiro[3.5]nonan-2-ylmethyl)-6-methyl-morpholin-4-yl]pyrazolo[1,5-a]pyridine-7-carbonitrile] is 100 nM; for `C[C@@H]1CN(c2ccc(C#N)n3nccc23)C[C@H](CN2CCCC3CNCC32)O1` (stereo partly drawn) [Example 61, 4-[(2S,6R)-2-(2,3,4,4a,5,6,7,7a-octahydropyrrolo[3,4-b]pyridin-1-ylmethyl)-6-methyl-morpholin-4-yl]pyrazolo[1,5-a]pyridine-7-carbonitrile] it is 460 nM; for `C[C@@H]1CN(c2ccc(C#N)n3ncc(F)c23)C[C@H](CN2CCCC3(CCNC3)C2)O1` (stereo partly drawn) [Example 68, 3-fluoro-4-[(2S,6R)-2-(2,7-diazaspiro[4.5]decan-7-ylmethyl)-6-methyl-morpholin-4-yl]pyrazolo[1,5-a]pyridine-7-carbonitrile] it is 230 nM.

`C[C@@H]1CN(c2ccc(C#N)n3nccc23)C[C@H](CN2CCC23CNC3)O1` [Example 55, 4-[(2S,6R)-2-(1,6-diazaspiro[3.3]heptan-1-ylmethyl)-6-methyl-morpholin-4-yl]pyrazolo[1,5-a]pyridine-7-carbonitrile] showed an IC50 of 540 nM. The figure for `C[C@@H]1CN(c2ccc(C#N)n3nccc23)C[C@H](CN2CCCC3(CCNC3)C2)O1` (stereo partly drawn) [Example 44, 4-[(2S,6R)-2-(2,7-diazaspiro[4.5]decan-7-ylmethyl)-6-methyl-morpholin-4-yl]pyrazolo[1,5-a]pyridine-7-carbonitrile] is 240 nM; for `C[C@@H]1CN(c2ccc(C#N)n3nccc23)C[C@H](CN2CCCC3(CNC3)C2)O1` [Example 33, 4-[(2S,6R)-2-(2,6-diazaspiro[3.5]nonan-6-ylmethyl)-6-methyl-morpholin-4-yl]pyrazolo[1,5-a]pyridine-7-carbonitrile] it is 460 nM; for `C[C@@H]1CN(c2ccc(C#N)n3nccc23)C[C@H](CN2C3CNCC2COC3)O1` [Example 57, 4-[(2R,6S)-2-methyl-6-(3-oxa-7,9-diazabicyclo[3.3.1]nonan-9-ylmethyl)morpholin-4-yl]pyrazolo[1,5-a]pyridine-7-carbonitrile] it is 73 nM. Under `C[C@@H]1CN(c2ccc(C#N)n3nccc23)C[C@H](CN2CC3CCNCC32)O1` (stereo partly drawn) [Example 56, 4-[(2S,6R)-2-(3,8-diazabicyclo[4.2.0]octan-8-ylmethyl)-6-methyl-morpholin-4-yl]pyrazolo[1,5-a]pyridine-7-carbonitrile] stands 270 nM; under `C[C@@H]1CN(c2ccc(C#N)n3nccc23)C[C@H](CN2CCC3(CN(C)CCO3)C2)O1` (stereo partly drawn) [Example 76, 4-[(2R,6S)-2-methyl-6-[(9-methyl-6-oxa-2,9-diazaspiro[4.5]decan-2-yl)methyl]morpholin-4-yl]pyrazolo[1,5-a]pyridine-7-carbonitrile], 920 nM; under `C[C@@H]1CN(c2ccc(C#N)n3nccc23)C[C@H](CN2CCC3(CCN3)CC2)O1` [Example 48, 4-[(2S,6R)-2-(1,7-diazaspiro[3.5]nonan-7-ylmethyl)-6-methyl-morpholin-4-yl]pyrazolo[1,5-a]pyridine-7-carbonitrile], 300 nM.
